Assay results from patent US20240316129A1, “Bacteria and Herbal Extract Nutraceutical Blends for Lung Health Maintenance” (The UAB Research Foundation, priority 2021, published 2024).

Columns and labels:
[1] = system: newborn wild type C57BL/6 mice; test: Loss of function of Ac-PGP by RTR treatment in LPS-treated newborn mice; format: in vivo, mouse; conditions: under noxious stimuli, LPS+RTR compared to LPS alone, P<0.05
From the text: FIG. 9A illustrates that newborn wild type C57BL/6 mice were randomized to treatment with RTR, LPS, and RTR+LPS as well as normoxia and noxious stimuli.

mice = conditions: normoxia and under noxious stimuli, P<0.05
C57BL/6 mouse pups = test: In vivo (mouse) dysbiosis model of chronic lung disease, LPS-treated pups
RSB13 = test: Culture growth of probiotic strain RSB13 with herbal extracts or Vitamin D; format: cell-based, Lactobacillus rhamnosus; conditions: number of colonies per plate
RSB11 = test: Culture growth of probiotic strain RSB11 with herbal extracts or Vitamin D; format: cell-based, Lactobacillus plantarum; conditions: number of colonies per plate
RSB12 = test: Culture growth of probiotic strain RSB12 with herbal extracts or Vitamin D; format: cell-based, Lactobacillus acidophilus; conditions: number of colonies per plate
[2] = LPS-treated mice compared to controls, P<0.05

Question: With arginine-threonine-arginine [RTR] as the substance, how does the MPO concentrations [1] read?
Answer: significantly lower

Question: What about the RAC [1] of the same substance?
Answer: significantly higher

Question: What about the RVH [1] of the same substance?
Answer: significantly less severe

Question: How did the MPO concentration (mice; ELISA) turn out when “N-acetyl-Proline-Glycine-Proline [Ac-PGP]” was run?
Answer: increased

Question: And the “NE concentrations in BALF” value (mice)?
Answer: increased

Question: What about the RAC counts (mice) of the same substance?
Answer: decreased

Question: And the “right ventricular hypertrophy (RVH)” value (mice)?
Answer: increased

Question: lipopolysaccharide [LPS] was tested. Which lung tissue histology (C57BL/6 mouse pups; LPS-treated C57BL/6 mouse pups) did it give?
Answer: alveolar hypoplasia and simplification

Question: And the “myeloperoxidase (MPO) levels in BALF” value (C57BL/6 mouse pups; [2])?
Answer: significantly increased

Question: And the “neutrophil elastase (NE) levels in BALF” value (C57BL/6 mouse pups; [2])?
Answer: significantly increased

Question: What about the “radial alveolar counts (RAC)” value (C57BL/6 mouse pups; [2]) of the same substance?
Answer: significantly decreased

Question: And the “Ac-PGP levels in BALF” value (C57BL/6 mouse pups; LPS-treated mice compared to controls, by HPLC, P<0.05)?
Answer: significantly increased

Question: Vitamin D was tested. Which “culture growth of RSB13” value (RSB13) did it give?
Answer: do not have an inhibitory effect

Question: What about the “culture growth of RSB11” value (RSB11) of the same substance?
Answer: do not have an inhibitory effect

Question: And the “culture growth of RSB12” value (RSB12)?
Answer: do not have an inhibitory effect
